According to ChEMBL document CHEMBL1201862, “PubChem BioAssay data set” (2004):
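Test compounds were applied to cells in 96-well plates for 48 hours at 5 doses. Here, GI50 denotes the concentration required for 50% inhibition of growth.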 The source made the active and inactive calls. No stated cut-off is given here; in the data, active = GI50 up to about 1.1 µM and inactive = higher.

Key:
Test in all cases: NCI-60 cell line screen, 48 h
[1] = system: 786-0
[2] = system: A549
[3] = system: EKVX
[4] = system: HCT-116
[5] = system: HL-60
[6] = system: HOP-92
[7] = system: LXFL 529
[8] = system: M14
[9] = system: MOLT-4
[10] = system: NCI-H460
[11] = system: RPMI-8226
[12] = system: SF-295
[13] = system: SNB-78
[14] = system: CAKI-1
[15] = system: DU-145
[16] = system: HCC 2998
[17] = system: OVCAR-3
[18] = system: PC-3
[19] = system: SK-OV-3
[20] = system: UO-31

Row | Compound | GI50 [1] | GI50 [2] | GI50 [3] | GI50 [4] | GI50 [5] | GI50 [6] | GI50 [7] | GI50 [8] | GI50 [9] | GI50 [10] | GI50 [11] | GI50 [12] | GI50 [13] | GI50 [14] | GI50 [15] | GI50 [16] | GI50 [17] | GI50 [18] | GI50 [19] | GI50 [20]
1 | COC1[C@@H](OC(C)=O)[C@@H](NC(=O)C(Cl)(Cl)Cl)C(I)[C@@H](N2C(=O)c3ccccc3C2=O)[C@H]1OC (stereo partly specified) | > 100 µM (inactive) | > 100 µM (inactive) | > 100 µM (inactive) | > 100 µM (inactive) | > 100 µM (inactive) | 47.5 µM (inactive) | > 100 µM (inactive) | > 100 µM (inactive) | > 100 µM (inactive) | > 100 µM (inactive) | > 100 µM (inactive) | 36.6 µM (inactive) | > 100 µM (inactive) | – | – | – | – | – | – | –
2 | O=C(CN1CCN(c2ccccn2)CC1)N1CCCn2c1nc1ccccc1c2=O | > 100 µM (inactive) | > 100 µM (inactive) | > 100 µM (inactive) | > 100 µM (inactive) | > 100 µM (inactive) | > 100 µM (inactive) | – | > 100 µM (inactive) | > 100 µM (inactive) | > 100 µM (inactive) | > 100 µM (inactive) | > 100 µM (inactive) | – | > 100 µM (inactive) | > 100 µM (inactive) | > 100 µM (inactive) | > 100 µM (inactive) | > 100 µM (inactive) | > 100 µM (inactive) | > 100 µM (inactive)
3 | Cc1ccc2c(n1)C(=O)C=CC2=O | 5.96 µM (inactive) | 16.9 µM (inactive) | 7.03 µM (inactive) | 1.97 µM (inactive) | 0.486 µM (active) | 3.9 µM (inactive) | – | 15 µM (inactive) | 2.61 µM (inactive) | 17.4 µM (inactive) | 2.59 µM (inactive) | 18.2 µM (inactive) | – | 2.02 µM (inactive) | 14.8 µM (inactive) | 16.3 µM (inactive) | 2.71 µM (inactive) | 16.8 µM (inactive) | 18.3 µM (inactive) | 5.46 µM (inactive)
4 | O=C1CCCCCCCCCCC(=O)C2CCOCCOCCOCCC1Cc1cccc(n1)C2 | > 100 µM (inactive) | > 100 µM (inactive) | > 100 µM (inactive) | 88.7 µM (inactive) | – | – | 59.8 µM (inactive) | 67.6 µM (inactive) | 31.6 µM (inactive) | 99.1 µM (inactive) | 39.1 µM (inactive) | 76.7 µM (inactive) | 79.6 µM (inactive) | 41.2 µM (inactive) | – | 46.1 µM (inactive) | 40.6 µM (inactive) | – | > 100 µM (inactive) | 42.1 µM (inactive)
5 | CN(C)CCNC(=O)C(C)(C)Oc1ccc(C(=O)c2ccc(Cl)cc2)cc1Cl | 3.91 µM (inactive) | 9.18 µM (inactive) | 11.2 µM (inactive) | 7.4 µM (inactive) | 5.26 µM (inactive) | 6 µM (inactive) | – | 2.45 µM (inactive) | 12 µM (inactive) | 7.98 µM (inactive) | 3.94 µM (inactive) | 10.6 µM (inactive) | – | 13.1 µM (inactive) | 13.2 µM (inactive) | 5.21 µM (inactive) | 12.6 µM (inactive) | 11.5 µM (inactive) | 15.9 µM (inactive) | 9.59 µM (inactive)
6 | COc1ccc(/N=C2\C(=S)N(c3ccc(OC)cc3)/C(=N/S(=O)(=O)c3ccccc3)N2c2ccccc2)cc1 | 7.14 µM (inactive) | 34.9 µM (inactive) | 16.4 µM (inactive) | 6.64 µM (inactive) | 0.986 µM (active) | 7.01 µM (inactive) | – | 4.9 µM (inactive) | 0.953 µM (active) | 23.8 µM (inactive) | 1.45 µM (inactive) | 22.2 µM (inactive) | – | 13.2 µM (inactive) | 22.1 µM (inactive) | > 34.5 µM (inactive) | 5.5 µM (inactive) | 4.67 µM (inactive) | > 39.9 µM (inactive) | 3.59 µM (inactive)
7 | C=CCC1(CN(C)C)CC/C(=C\c2ccc3c(c2)OCO3)C1=O (stereo unspecified) | 44.8 µM (inactive) | 74.1 µM (inactive) | 18.1 µM (inactive) | 43.6 µM (inactive) | 4.32 µM (inactive) | 89.9 µM (inactive) | 34.5 µM (inactive) | 56.9 µM (inactive) | 27.3 µM (inactive) | 50.4 µM (inactive) | 24.3 µM (inactive) | > 100 µM (inactive) | > 100 µM (inactive) | 68.5 µM (inactive) | – | 37.3 µM (inactive) | 65.3 µM (inactive) | – | – | 45 µM (inactive)
8 | CO[C@H](c1ccccc1)[C@H](O)[C@](O)(c1ccccc1)P(=O)(OC)OC | > 100 µM (inactive) | > 100 µM (inactive) | > 100 µM (inactive) | > 100 µM (inactive) | > 100 µM (inactive) | > 100 µM (inactive) | – | > 100 µM (inactive) | > 100 µM (inactive) | > 100 µM (inactive) | > 100 µM (inactive) | > 100 µM (inactive) | – | > 100 µM (inactive) | > 100 µM (inactive) | > 100 µM (inactive) | > 100 µM (inactive) | > 100 µM (inactive) | > 100 µM (inactive) | > 100 µM (inactive)
